Earlier results in US20030039701A1 (priority 2000, published 2003).
Where two headings read alike, the source gives them in different places.

Tests used:
HIV-infected men = details: pharmacological doses
[1] = 300 mg/wk for six weeks; TE: shoulders; ND: shoulders and chest
[2] = supplementation
[3] = not given; remark: listed apart in the source
patients on dialysis = details: compared with placebo
young female rats = details: mini-osmotic pumps
hypogonadal men = details: Caucasian group
aromatase = target: T1, aromatase (Homo sapiens, UniProt P11511); details: relative to chrysin, AG, ANG
T1 sequence (P11511 1-503): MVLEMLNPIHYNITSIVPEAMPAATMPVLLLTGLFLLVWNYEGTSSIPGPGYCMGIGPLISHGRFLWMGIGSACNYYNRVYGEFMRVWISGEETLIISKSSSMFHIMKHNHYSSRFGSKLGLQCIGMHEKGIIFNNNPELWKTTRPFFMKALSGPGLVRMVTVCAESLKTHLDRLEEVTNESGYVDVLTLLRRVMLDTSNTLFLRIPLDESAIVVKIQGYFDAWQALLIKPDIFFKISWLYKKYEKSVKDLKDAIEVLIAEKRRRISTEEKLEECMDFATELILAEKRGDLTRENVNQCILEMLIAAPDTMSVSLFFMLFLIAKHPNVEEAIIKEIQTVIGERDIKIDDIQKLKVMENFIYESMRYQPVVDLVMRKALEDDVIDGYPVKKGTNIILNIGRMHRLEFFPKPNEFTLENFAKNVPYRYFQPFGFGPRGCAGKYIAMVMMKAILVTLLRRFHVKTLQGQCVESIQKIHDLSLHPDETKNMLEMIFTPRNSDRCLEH

[4] = tested on: prostate and seminal vesicle weights
androgen receptor = details: seminal vesicle

C[C@]12CC[C@H](O)CC1=CC[C@@H]1[C@@H]2CC[C@]2(C)C(=O)CC[C@@H]12 [DHEA, dehydro-epiandrosterone]
plasma testosterone (50 mg dose): restored plasma testosterone to levels similar to those observed in young women | plasma testosterone (200 mg dose): slightly below the levels observed in normal men

CCCCCCCCCC(=O)O[C@H]1CC[C@H]2[C@@H]3CCC4=CC(=O)CC[C@@H]4[C@H]3CC[C@]12C [ND, 19-nor-testosterone decanoate]
total weight, lean body mass, body cell mass, muscle size and strength (HIV-infected men): significant gains | body circumferences (of fifteen) [1]: significant increases

C[C@]12CC[C@H]3[C@@H](CCC4=C[C@@H](O)CC[C@@]43C)[C@@H]1CC[C@@H]2O [4-androstenediol]
urine testosterone concentration relative to 4-androstenedione [2]: 10 fold

C[C@]12CC[C@H]3[C@@H](CCC4=CC(=O)CC[C@@H]43)[C@@H]1CC[C@@H]2O [nandrolone, 19-nor-testosterone]
decrease in HDL-cholesterol ([3]; body builders): 25-27% | decrease in diastolic blood pressure ([3]; body builders): 25-27% | azoospermia (lack of sperm) ([3]; nandrolone use): azoospermia | lean body mass (patients on dialysis): increased significantly | energy expenditure (young female rats): increased energy expenditure

CCCCCCC(=O)O[C@H]1CC[C@H]2[C@@H]3CCC4=CC(=O)CC[C@]4(C)[C@H]3CC[C@]12C [TE, testosterone enanthate]
sexual interest and activity, spontaneous erection (hypogonadal men): significant increases | body circumferences (of fifteen) [1]: significant increases

COc1ccc(-c2coc3cc(O)cc(O)c3c2=O)cc1 [Biochanin A, 5,7-dihydroxy-4′-methoxyisoflavone]
aromatase inhibition (aromatase): inhibited aromatase, but to a lesser degree

C[C@@H]1CC2=CC(=O)CC[C@@H]2[C@H]2CC[C@]3(C)[C@@H](O)CC[C@H]3[C@@H]21 [MENT, 7α-methyl-19-nor-testosterone]
androgenic potency relative to testosterone [4]: four- to five-times more androgenic than testosterone | anabolic potency relative to testosterone (levator ani muscles): ten-times as potent as testosterone | sexual interest and activity, spontaneous erection (hypogonadal men): significant increases

C[C@]12CC[C@H]3[C@@H](CC=C4C[C@@H](O)CC[C@@]43C)[C@@H]1CC[C@@H]2O [5-androstenediol]
proportion of protein in the body composition (young female rats): increased the proportion of protein

C[C@]12CC[C@H]3[C@@H](CCC4=CC(=O)CC[C@@]43C)[C@@H]1CC[C@@H]2O [testosterone]
proportion of protein in the body composition (young female rats): increased the proportion of protein | change of affinity to the androgen receptor on conversion by 5-α-reductase (androgen receptor): increasing by seven- to eight-fold
